Measurements from US8389231B2, “Assays, method and compositions that exploit a mycobacterial iron acquistion pathway in cells” (The Trustees of Princeton University, priority 2005, dated 2013).

Key:
[1] = tested on: macrophages (THP-1 cell line); assay: MJ-mediated iron acquisition: conversion of MJ to Fe-MJ in macrophage culture, HPLC analysis; type: cell-based, human; conditions: for effect on basal recovery of Fe-MJ: 10 μM metal transferrin added to macrophages with MJ; for stimulation of MJ-mediated iron acquisition from macrophages (conversion of MJ to Fe-MJ): 10 μM transferrin species added to macrophages with MJ, 37° C.
Method: Cell cultures. The THP-1 cell line (a macrophage-like monocyte) was purchased from American Type Culture Collection (ATCC) and used for all protocols. The cells were cultured into PRMI1640 (ATCC) supplemented with 10% fetal bovine serum (ATCC), 2 mM L-glutamine and 0.02 mM penicillin-streptomycin, and maintained at a cell concentration between 2×10^5 and 1×10^6 cells/ml at 37° C. in a 5% CO2 air atmosphere by addition of fresh growth medium (as described above) twice per week. Either PRMI1640 or phenol-red-free PRMI1640 was used with the supply of 2 mM L-glutamine and 0.02 mM penicillin-streptomycin, but in the absence of 10% FBS, for the experiments with MJ.
HPLC analysis for Fe-MJ and MJ. Varian ProStar & PrepStar HPLC and a Waters Delta Pak 5μ C18-300 Åcolumn were used with 3:7 H2O:CH3CN as eluting solution under all conditions. The intensities of the peak with retention time 43 min at 460 nm were integrated and normalized to the amount of Fe-MJ. Macrophages (final concentration, 1×10^5 cells/ml) or 0.05 mM DMPC vesicles as controls were preincubated in RPMI 1640 medium at 37° C. for 4 h, followed by the addition of MJ (final concentration, 1.5 μM). The media were incubated for 24 h at various conditions, such as in the presence or absence of hTf, at varied temperatures or in the presence of different concentrations of desferrioxamine mesylate salt. Three aliquots (3×4 ml) of the medium were collected and lysed by dunces. Lipophilic components were extracted into 3.5 ml CHCl3 and the mixture was centrifuged at 2500 r.p.m for 8 min. The organic layer extraction 2.5 ml was subject to a stream of argon to vaporize CHCl3. The dried mixture was dissolved into 400 μl CH3CN, of which 200 μl solutions was injected into HPLC. The peak intensity of 100% conversion to Fe-MJ was obtained by incubating 1.5 μM Fe-MJ into the medium, following the same workup above.

[2] = tested on: macrophage cells; assay: Cell-aqueous-phase distributions of MJ and Fe-MJ; type: in vitro ADME, human
Method: Cell-aqueous-phase distributions of MJ and Fe-MJ. After the conversion from MJ to Fe-MJ, aqueous-phase Fe-MJ was obtained by separating the supernatant medium from macrophage cells via the centrifugation with 1500 r.p.m for 5 min. The aliquot of recovered supernatant was subject to CHCl3 extract and HPLC analysis as described above. For measurements of the cell/aqueous-phase partition coefficient of Fe-MJ, Fe-MJ 1.0 μM was incubated into RPMI 1640 medium at 37° C. for half an hour in the presence of various concentrations of macrophage cells. Then the supernatant was separated and analyzed as described above. For the partition coefficient of MJ, prior to the HPLC analysis, a 10-fold ferric citrate excess was added into a MJ-CH3CN solution, followed by a two-hr incubation for the complete conversion from MJ to Fe-MJ. Aqueous-phase and total MJ and Fe-MJ, Ctotal and Cw, respectively, were used to calculate Cv/Cw according to the relationship: Cv/Cw=(Ctotal−Cw)/Cw. The partition coefficient, K was defined according to the following equation: Cv/Cw=K×[Cell], in which [Cell] is the concentration of macrophage cells (cells/ml) and Cv is the amount of lipid-phase MJ or Fe-MJ.

[3] = Lipid-aqueous-phase partition coefficient using lipid vesicles as model membrane; type: physicochemical

Substance | effect on basal recovery of Fe-MJ [1] | stimulation of MJ-mediated iron acquisition from macrophages (conversion of MJ to Fe-MJ) [1] | other results
Al(III) transferrin: Al(III) transferrin complex prepared from apo transferrin, Al(NO3)3 and nitrilotriacetic acid | greatly suppressed | failed to stimulate | –
Co-Tf: Cobalt(III) transferrin | – | more effective agonist than hTf | –
Ga(III) transferrin: Ga(III) transferrin complex prepared from apo transferrin | greatly suppressed | failed to stimulate | –
ferric mycobactin J [Fe-MJ] | – | – | Fe-MJ from the aqueous phase as share of total recovered Fe-MJ ([2]; after 24-hr incubation of MJ in macrophage culture (1×10^5 cells/ml), presence or absence of hTf): 80%; cell-aqueous-phase partition coefficient K (Cv/Cw=K×[Cell]) ([2]; macrophage cells, RPMI 1640, 37° C.): 9.8×10^−7 ml/cell; lipid-aqueous-phase partition coefficient Kx [3]: 3×10^5
hTf: fully saturated holo-transferrin (human transferrin), obtained from Sigma | – | nearly doubled | hTf-triggered conversion at low temperatures ([1]; 10 μM hTf, low temperatures (4° C. level similar to absence of hTf)): significantly suppressed
